The values that follow come from paper PMC5215309 (European Journal of Nuclear Medicine and Molecular Imaging, 2016).

In the assay the target is T1, PDE10A (Macaca fascicularis, UniProt A0A2K5WSP5).
T1 construct: native enzyme in living brain (in vivo PET; striatum, globus pallidus, substantia nigra)
T1 sequence (A0A2K5WSP5 1-791): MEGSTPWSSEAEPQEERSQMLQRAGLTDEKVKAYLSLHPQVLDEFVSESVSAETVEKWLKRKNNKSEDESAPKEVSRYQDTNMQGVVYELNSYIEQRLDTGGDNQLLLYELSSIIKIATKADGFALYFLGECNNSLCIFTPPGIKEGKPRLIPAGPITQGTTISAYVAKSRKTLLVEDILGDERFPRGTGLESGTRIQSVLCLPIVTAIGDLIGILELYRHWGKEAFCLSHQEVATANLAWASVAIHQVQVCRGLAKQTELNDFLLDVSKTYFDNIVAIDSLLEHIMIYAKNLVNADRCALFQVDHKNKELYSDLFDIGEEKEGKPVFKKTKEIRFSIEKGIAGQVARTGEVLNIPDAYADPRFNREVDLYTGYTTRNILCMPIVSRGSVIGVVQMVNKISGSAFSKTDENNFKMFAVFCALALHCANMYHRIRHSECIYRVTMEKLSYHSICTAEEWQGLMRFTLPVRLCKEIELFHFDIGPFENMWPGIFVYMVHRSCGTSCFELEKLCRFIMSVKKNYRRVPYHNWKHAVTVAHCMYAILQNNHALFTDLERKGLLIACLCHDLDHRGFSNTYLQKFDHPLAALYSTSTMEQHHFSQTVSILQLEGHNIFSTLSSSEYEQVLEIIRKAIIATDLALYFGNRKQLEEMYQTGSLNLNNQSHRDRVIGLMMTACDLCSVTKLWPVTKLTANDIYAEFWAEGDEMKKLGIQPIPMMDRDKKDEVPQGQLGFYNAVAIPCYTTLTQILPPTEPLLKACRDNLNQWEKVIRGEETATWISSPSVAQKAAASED
In words: in vivo PET competition with […]Lu AE92686, Lassen plot. As to conditions: two monkeys; i.v. pretreatment, mean plasma concentrations 685 and 749 ng/mL.

Regarding `Cn1cc(-c2ccncc2)c(-c2ccc(OCc3ccc4ccccc4n3)cc2)n1` [MP-10], the “% PDE10A occupancy at […]” value was 93 and 95.
